Laboratory results as given in patent US10759793B2, “2-(pyrazolopyridin-3-yl)pyrimidine derivatives as JAK inhibitors” (ALMIRALL, S.A., priority 2015, dated 2020).

Columns and labels:
Type in all cases: biochemical
JAK2 = JAK2 (Homo sapiens (Human), UniProt O60674); assay: In vitro JAK kinase assay (TR-FRET), JAK2; conditions: catalytic domain aa 826-1132, GST-fusion; ATP 0.2 μM; peptide 20 nM; 30 minutes at room temperature
Procedure, shortened: (§1)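 Each human JAK enzyme assayed on biotinylated poly(GT) peptide substrate, reaction 30 min at room temperature. Phosphorylation detected by TR-FRET after a 3 h detection incubation.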

JAK3 = JAK3 (Homo sapiens (Human), UniProt P52333); assay: In vitro JAK kinase assay (TR-FRET), JAK3; conditions: catalytic domain aa 795-1124, GST-fusion; ATP 0.6 μM; peptide 140 nM; 30 minutes at room temperature
JAK3, sequence (P52333 795-1124): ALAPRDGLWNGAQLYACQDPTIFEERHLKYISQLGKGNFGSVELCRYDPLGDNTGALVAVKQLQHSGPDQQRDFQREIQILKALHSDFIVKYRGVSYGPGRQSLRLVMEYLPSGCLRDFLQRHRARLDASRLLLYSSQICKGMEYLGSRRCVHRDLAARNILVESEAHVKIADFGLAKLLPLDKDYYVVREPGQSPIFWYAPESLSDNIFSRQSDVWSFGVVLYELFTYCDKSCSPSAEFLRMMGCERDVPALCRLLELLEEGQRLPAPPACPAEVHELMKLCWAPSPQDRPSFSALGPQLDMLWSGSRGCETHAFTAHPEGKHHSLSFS
Procedure, shortened: as §1

JAK1 = JAK1 (Homo sapiens (Human), UniProt P23458); assay: In vitro JAK kinase assay (TR-FRET), JAK1; conditions: catalytic domain aa 850-1154, GST-fusion; ATP 3 μM; peptide 60 nM; 30 minutes at room temperature
JAK1, sequence (P23458 850-1154): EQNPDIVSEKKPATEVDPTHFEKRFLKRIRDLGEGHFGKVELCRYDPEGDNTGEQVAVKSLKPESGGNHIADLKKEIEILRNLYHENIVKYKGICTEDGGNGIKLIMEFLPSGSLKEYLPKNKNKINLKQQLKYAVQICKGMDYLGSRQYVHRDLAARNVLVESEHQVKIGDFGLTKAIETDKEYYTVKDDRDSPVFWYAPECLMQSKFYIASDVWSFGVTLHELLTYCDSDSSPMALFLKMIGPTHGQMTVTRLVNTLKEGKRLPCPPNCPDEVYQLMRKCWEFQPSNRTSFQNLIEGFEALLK
Procedure, shortened: as §1

JAK2, sequence (O60674 826-1132): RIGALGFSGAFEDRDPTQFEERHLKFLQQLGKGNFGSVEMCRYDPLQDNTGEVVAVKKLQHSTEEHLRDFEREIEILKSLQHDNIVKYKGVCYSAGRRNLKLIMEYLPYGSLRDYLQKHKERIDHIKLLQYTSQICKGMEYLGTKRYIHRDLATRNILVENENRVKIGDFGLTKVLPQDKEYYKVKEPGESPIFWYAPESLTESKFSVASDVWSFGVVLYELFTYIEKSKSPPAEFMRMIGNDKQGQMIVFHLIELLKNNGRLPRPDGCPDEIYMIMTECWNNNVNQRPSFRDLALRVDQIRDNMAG

Compound: COCCOc1nc(-c2cnn3ccccc23)nc(N[C@@H]2CCCN(C(=O)CO)C2)c1F [Example 39, 2-((3R)-3-{[5-Fluoro-6-(2-methoxyethoxy)-2-pyrazolo[1,5-a]pyridin-3-ylpyrimidin-4-yl]amino}piperidin-1-yl)-2-oxoethanol]
- IC50 (JAK2): 0.8 nM
- IC50 (JAK3): 3 nM
- IC50 (JAK1): 11 nM

Compound: O=C(CO)N1CCC[C@@H](Oc2nc(-c3cnn4ccccc34)nc(OCCO)c2F)C1 [Example 65, 2-((3R)-3-{[5-Fluoro-6-(2-hydroxyethoxy)-2-pyrazolo[1,5-a]pyridin-3-ylpyrimidin-4-yl]oxy}piperidin-1-yl)-2-oxoethanol]
- IC50 (JAK2): 2 nM
- IC50 (JAK3): 9 nM
- IC50 (JAK1): 38 nM

Compound: Cc1ccn2ncc(-c3nc(N[C@@H]4CCCN(C(=O)CO)C4)c(F)c(N4CCOCC4)n3)c2c1 [Example 29, 2-((3R)-3-{[5-Fluoro-2-(5-methylpyrazolo[1,5-a]pyridin-3-yl)-6-morpholin-4-ylpyrimidin-4-yl]amino}piperidin-1-yl)-2-oxoethanol]
- IC50 (JAK2): 4 nM
- IC50 (JAK3): 10 nM
- IC50 (JAK1): 27 nM

Compound: CN(C)CCOc1nc(-c2cnn3ccccc23)nc(N[C@H]2CC[C@H](CC#N)CC2)c1F [Example 9, [trans-4-({6-[2-(dimethylamino)ethoxy]-5-fluoro-2-pyrazolo[1,5-a]pyridin-3-ylpyrimidin-4-yl}amino)cyclohexyl]acetonitrile]
- IC50 (JAK2): 0.7 nM
- IC50 (JAK3): 3 nM
- IC50 (JAK1): 85 nM

Compound: O=C(CO)N1CCC[C@@H](Nc2nc(-c3cnn4ccccc34)nc(N3CCC(O)CC3)c2F)C1 [Example 22, 1-(5-Fluoro-6-{[(3R)-1-glycoloylpiperidin-3-yl]amino}-2-pyrazolo[1,5-a]pyridin-3-ylpyrimidin-4-yl)piperidin-4-ol]
- IC50 (JAK2): 0.7 nM
- IC50 (JAK3): 4 nM
- IC50 (JAK1): 7 nM

Compound: O=C(CO)N1CCC[C@@H](Nc2nc(-c3cnn4ccccc34)nc(OCCCO)c2F)C1 [Example 41, 3-[(5-Fluoro-6-{[(3R)-1-glycoloylpiperidin-3-yl]amino}-2-pyrazolo[1,5-a]pyridin-3-ylpyrimidin-4-yl)oxy]propan-1-ol]
- IC50 (JAK2): 1 nM
- IC50 (JAK3): 3 nM
- IC50 (JAK1): 8 nM

Compound: Cc1cc(-c2cc(N[C@@H]3CCCN(C(=O)CO)C3)nc(-c3cnn4ccccc34)n2)cc(C)n1 [Example 101, 2-((3R)-3-{[6-(2,6-Dimethylpyridin-4-yl)-2-pyrazolo[1,5-a]pyridin-3-ylpyrimidin-4-yl]amino}piperidin-1-yl)-2-oxoethanol]
- IC50 (JAK2): 1 nM
- IC50 (JAK3): 1 nM
- IC50 (JAK1): 2 nM

Compound: O=C(CO)N1CCC[C@@H](Oc2nc(-c3cnn4ccccc34)nc(N3CCC(O)CC3)c2F)C1 [Example 75, 1-(5-Fluoro-6-{[(3R)-1-glycoloylpiperidin-3-yl]oxy}-2-pyrazolo[1,5-a]pyridin-3-ylpyrimidin-4-yl)piperidin-4-ol]
- IC50 (JAK2): 4 nM
- IC50 (JAK3): 26 nM
- IC50 (JAK1): 29 nM

Compound: N#CC[C@H]1CC[C@H](Nc2nc(-c3cnn4ccccc34)nc(OC[C@H](O)CO)c2F)CC1 [Example 7, {Trans-4-[(6-{[(2R)-2,3-dihydroxypropyl]oxy}-5-fluoro-2-pyrazolo[1,5-a]pyridin-3-ylpyrimidin-4-yl)amino]cyclohexyl}acetonitrile]
- IC50 (JAK2): 0.5 nM
- IC50 (JAK3): 2 nM
- IC50 (JAK1): 10 nM

Compound: Cc1cc(-c2nc(-c3cnn4ccccc34)nc(N[C@@H]3CCCN(C(=O)CC#N)C3)c2F)cc(C)n1 [Example 87, 3-((3R)-3-{[6-(2,6-Dimethylpyridin-4-yl)-5-fluoro-2-pyrazolo[1,5-a]pyridin-3-ylpyrimidin-4-yl]amino}piperidin-1-yl)-3-oxopropanenitrile]
- IC50 (JAK2): 1 nM
- IC50 (JAK3): 3 nM
- IC50 (JAK1): 10 nM

Compound: COc1cc(N[C@@H]2CCCN(C(=O)CO)C2)nc(-c2cnn3ccccc23)n1 [Example 94, 2-{(3R)-3-[(6-Methoxy-2-pyrazolo[1,5-a]pyridin-3-ylpyrimidin-4-yl)amino]piperidin-1-yl}-2-oxoethanol]
- IC50 (JAK2): 1 nM
- IC50 (JAK3): 7 nM
- IC50 (JAK1): 7 nM

Compound: CN1CCN(c2nc(-c3cnn4ccccc34)nc(N[C@@H]3CCCN(C(=O)CO)C3)c2F)CC1 [Example 25, 2-((3R)-3-{[5-fluoro-6-(4-methylpiperazin-1-yl)-2-pyrazolo[1,5-a]pyridin-3-ylpyrimidin-4-yl]amino}piperidin-1-yl)-2-oxoethanol]
- IC50 (JAK2): 0.6 nM
- IC50 (JAK3): 2 nM
- IC50 (JAK1): 22 nM

Compound: Cc1ccc(-c2nc(-c3cnn4ccccc34)nc(N[C@@H]3CCCN(C(=O)CO)C3)c2F)cn1 [Example 36, 2-((3R)-3-{[5-Fluoro-6-(6-methylpyridin-3-yl)-2-pyrazolo[1,5-a]pyridin-3-ylpyrimidin-4-yl]amino}piperidin-1-yl)-2-oxoethanol]
- IC50 (JAK2): 0.5 nM
- IC50 (JAK3): 2 nM
- IC50 (JAK1): 2 nM

Compound: Cc1cc(-c2nc(-c3cnn4ccccc34)nc(N(C)[C@@H]3CCCN(C(=O)CO)C3)c2F)ccn1 [Example 77, 2-{(3R)-3-[[5-Fluoro-6-(2-methylpyridin-4-yl)-2-pyrazolo[1,5-a]pyridin-3-ylpyrimidin-4-yl](methyl)amino]piperidin-1-yl}-2-oxoethanol]
- IC50 (JAK2): 2 nM
- IC50 (JAK3): 23 nM
- IC50 (JAK1): 3 nM

Compound: Cc1cc(-c2nc(-c3cnn4ccccc34)nc(O[C@@H]3CCCN(C(=O)CO)C3)c2F)ccn1 [Example 71, 2-((3R)-3-{[5-Fluoro-6-(2-methylpyridin-4-yl)-2-pyrazolo[1,5-a]pyridin-3-ylpyrimidin-4-yl]oxy}piperidin-1-yl)-2-oxoethanol]
- IC50 (JAK2): 2 nM
- IC50 (JAK3): 26 nM
- IC50 (JAK1): 35 nM

Compound: COCCOc1cc(N[C@@H]2CCCN(C(=O)CO)C2)nc(-c2cnn3ccccc23)n1 [Example 96, 2-((3R)-3-{[6-(2-Methoxyethoxy)-2-pyrazolo[1,5-a]pyridin-3-ylpyrimidin-4-yl]amino}piperidin-1-yl)-2-oxoethanol]
- IC50 (JAK2): 1 nM
- IC50 (JAK3): 2 nM
- IC50 (JAK1): 6 nM

Compound: [Trans-4-({6-[2-(dimethylamino)ethoxy]-5-fluoro-2-pyrazolo[1,5-a]pyridin-3-ylpyrimidin-4-yl}amino)cyclohexyl]acetonitrile [Example 10]
- IC50 (JAK2): 0.5 nM
- IC50 (JAK3): 0.7 nM
- IC50 (JAK1): 32 nM

Compound: C[C@@H](CO)Oc1nc(-c2cnn3ccccc23)nc(N[C@@H]2CCCN(C(=O)CO)C2)c1F [Example 59, (2S)-2-[(5-Fluoro-6-{[(3R)-1-glycoloylpiperidin-3-yl]amino}-2-pyrazolo[1,5-a]pyridin-3-ylpyrimidin-4-yl)oxy]propan-1-ol]
- IC50 (JAK2): 3 nM
- IC50 (JAK3): 4 nM
- IC50 (JAK1): 29 nM

Compound: C[C@H](CO)Oc1nc(-c2cnn3ccccc23)nc(N[C@@H]2CCCN(C(=O)CO)C2)c1F [Example 61, (2R)-2-[(5-Fluoro-6-{[(3R)-1-glycoloylpiperidin-3-yl]amino}-2-pyrazolo[1,5-a]pyridin-3-ylpyrimidin-4-yl)oxy]propan-1-ol]
- IC50 (JAK2): 10 nM
- IC50 (JAK3): 8 nM
- IC50 (JAK1): 58 nM

Compound: O=C(CO)N1CCC[C@@H](Nc2cc(-c3cncc(O)c3)nc(-c3cnn4ccccc34)n2)C1 [Example 105, 5-(6-{[(3R)-1-Glycoloylpiperidin-3-yl]amino}-2-pyrazolo[1,5-a]pyridin-3-ylpyrimidin-4-yl)pyridin-3-ol]
- IC50 (JAK2): 5 nM
- IC50 (JAK3): 5 nM
- IC50 (JAK1): 2 nM
